Results published in US9260466B2, “Use of a flavanol glycoside for suppressing activation of stellate cells” (Hong Kong Baptist University, priority 2013, dated 2016).
Values after ≈ are worked out from the molar mass of the structure shown.

Key:
Format in all cases: cell-based, rat
LTC-14 cells [1] = test: Immunofluorescent staining of α-SMA in TGF-β-stimulated LTC-14 cells; conditions: TGF-β 5 ng/mL, FIG. 1
Method: (§1) LTC-14 cells were cultured at 37° C. under a humidified condition of 95% air and 5% CO2 in Iscove's Modified Dulbecco's Medium (IMDM) supplemented with 10% fetal bovine serum (FBS). Cells used in all the experiment were among passages 9 to 25. LTC-14 cells were seeded at a density of 1×10^5/well in a 12-well plate, and incubated with recombinant TGF-β at 5 ng/mL and Eruberin A at 0, 0.5, 1, 5, 10 and 20 μg/mL in serum-free IMDM for 24 hours. Cells were then harvested for mRNA and protein extraction or subjected to Sirius Red/Fast Green staining or immunofluorescent staining.
For immunofluorescent staining of α-SMA, LTC-14 cells were seeded at a density of 1×10^5 onto the poly-L-lysine-coated cover slips in a 24-well plate, incubated with TGF-β at 5 ng/mL and Eruberin A at 0, 0.5, 1, 5, 10 and 20 μg/mL in serum-free IMDM for 24 hours. Cells were then fixed, blocked with 3% bovine serum albumin (BSA), probed with antibodies and mounted with fluorescence mounting medium containing 4′,6-diamidino-2-phenylindole (DAPI). Images were captured using the Nikon microscope and analyzed by the SPOT advanced software.

LTC-14 cells [2] = test: MTT cell proliferation assay; conditions: Eruberin A in the range of 0 to 20 μg/mL; results not shown
LTC-14 cells [3] = test: Western blotting of α-SMA and FN1 proteins in TGF-β-stimulated LTC-14 cells; conditions: TGF-β 5 ng/mL, Eruberin A 0.5-20 μg/mL, 24 hours, serum-free medium, FIG. 2
Method: as §1
(§2) Cytoplasmic and nuclear protein fractions of the LTC-14 cells were extracted using specific lysis buffers containing protease inhibitors. Cell lysates were loaded and separated by SDS-polyacrylamide gel electrophoresis. After wet electroblotting, proteins were transferred onto PVDF membranes (Bio-Rad), blocked with 5% non-fat milk, probed with antibodies and visualized by utilization of an ECL kit (GE Healthcare).

LTC-14 cells [4] = test: Real-time quantitative PCR of fibrotic mediator mRNA in TGF-β-stimulated LTC-14 cells; conditions: TGF-β 5 ng/mL, 24 hours
Method: as §1
mRNA samples from LTC-14 cells were extracted using Trizol reagent and subjected to a reverse transcription for cDNA synthesis. The synthesized cDNA was applied to amplifications with rat-specific primers for Tgf-β, Acta2, Col I-α1 and Fn1 in the ABI ViiA 7 real-time PCR system (Applied Biosystems) using 2×SYBR Green PCR Master Mix (Applied Biosystems). The Ct value of gene of interest was normalized to the endogenous reference Gapdh and presented as 2^−ΔΔCt using the comparative Ct method.

LTC-14 cells [5] = test: Sirius Red/Fast Green collagen staining of LTC-14 cells; conditions: TGF-β 5 ng/mL, Eruberin A 10 μg/mL, p<0.05 vs TGF-β alone, FIG. 3
Method: as §1
Amounts of collagen and non-collagenous proteins in LTC-14 cells were measured using the Sirius Red/Fast Green collagen staining kit (Chondrex Inc.) according to the manufacturer's instruction.

NF-κB = test: Western blotting of nuclear translocation of NF-κB in LTC-14 cells; conditions: compared to the TGF-β-treated control, FIG. 5
Method: as §1, §2

[6] = Eruberin A 0.5-20 μg/mL, FIG. 4

SMILES: COc1ccc(C2C[C@@H]3OC4C(Oc5c(C)c(O)c(C)c(c53)O2)OC(CO)C(O)C4O)cc1 (stereo partly drawn) [Eruberin A]
- TGF-β-stimulated α-SMA expression (immunofluorescence) (LTC-14 cells [1]; 24 hours): significantly attenuated
- immunoreactivities of α-SMA (LTC-14 cells [1]; Eruberin A at 10 μg/mL): sufficiently suppress
- cytotoxicity (MTT cell proliferation assay) (LTC-14 cells [2]): no notable cytotoxicity
- TGF-β-provoked elevation of FN1 protein (LTC-14 cells [3]): effectively attenuated
- TGF-β-provoked elevation of α-SMA protein (LTC-14 cells [3]): effectively attenuated
- IC50 (LTC-14 cells [4]; Rattus norvegicus, read-out: IC50 based on suppressive effects on the mRNA expression of α-SMA): ~10 µg/mL (≈ 21.7 µM)
- TGF-β-elevated mRNA expression level of Acta2 (LTC-14 cells [4]; [6]): significantly and dose-dependently suppressed
- TGF-β-elevated mRNA expression level of Col I-α1 (LTC-14 cells [4]; [6]): significantly and dose-dependently suppressed
- TGF-β-elevated mRNA expression level of Fn1 (LTC-14 cells [4]; [6]): significantly and dose-dependently suppressed
- TGF-β-elevated mRNA expression level of Tgf- (LTC-14 cells [4]; [6]): significantly and dose-dependently suppressed
- production of collagen (ratio of Sirius Red-stained collagenous to Fast Green-stained non-collagenous proteins) (LTC-14 cells [5]): notably suppressed
- nuclear translocation of NF-κB (NF-κB): significantly decreased
